The source of these data is patent US20230340011A1 (Asteroid Therapeutics, priority 2022, published 2023).

Assay [1] deals with LXRβ (Homo sapiens (Human), UniProt P55055). In words: In vitro assay LXRβ: PathHunter NHR CHO cells, LXRβ / Steroid Receptor Co-activator Peptide enzyme fragment complementation. It is filed as cell-based. Conditions: PathHunter NHR CHO cells, full-length human LXRβ and SRCP, chemiluminescent signal; read-out: LXRβ PPI. Put shortly:
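Co-activator recruitment measured by chemiluminescence after signal generation. The CHO line carries full-length human LXRβ tagged with ProLink and an SRCP–enzyme acceptor fusion in the nucleus; cells sat overnight at 37° C before testing, in charcoal-dextran filtered serum medium with 1% final vehicle.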

Assay [2] addresses SREBP-2 (Homo sapiens (Human), UniProt Q12772). In words: In vitro assay SREBP-2: PathHunter U2OS SREBP-2 Nuclear Translocation Cell Line, U18666A-stimulated. The class given is cell-based. Conditions: PathHunter U2OS SREBP-2 nuclear translocation cells, U18666A 10 μM, overnight (16 hours).

Structures can show the parent of a compound that is named as a salt.

LXRβ, sequence (P55055 whole entry, the tested form may be a part): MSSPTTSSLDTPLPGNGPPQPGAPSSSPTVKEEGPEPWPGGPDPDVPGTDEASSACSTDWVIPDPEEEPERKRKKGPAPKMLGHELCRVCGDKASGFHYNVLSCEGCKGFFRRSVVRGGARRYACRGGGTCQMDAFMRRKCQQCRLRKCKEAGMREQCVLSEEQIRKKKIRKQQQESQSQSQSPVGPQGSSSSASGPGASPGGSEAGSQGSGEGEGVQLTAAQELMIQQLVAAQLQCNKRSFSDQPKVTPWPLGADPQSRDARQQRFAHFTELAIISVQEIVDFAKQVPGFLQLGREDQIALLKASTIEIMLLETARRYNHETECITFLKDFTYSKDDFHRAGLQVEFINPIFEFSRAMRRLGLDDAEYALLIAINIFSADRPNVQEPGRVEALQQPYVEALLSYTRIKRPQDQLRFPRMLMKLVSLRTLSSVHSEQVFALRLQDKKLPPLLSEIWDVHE

`C[C@H](CCC(=O)N1CCC(C)(C)CC1)[C@H]1CC[C@H]2[C@@H]3CC=C4C[C@@H](O)CC[C@]4(C)[C@H]3CC[C@]12C` [Example 5, (R)-1-(4,4-dimethylpiperidin-1-yl)-4-((3S,8S,9S,10R,13R,14S,17R)-3-hydroxy-10,13-dimethyl-2,3,4,7,8,9,10,11,12,13,14,15,16,17-tetradecahydro-1H-cyclopenta[a]phenanthren-17-yl)pentan-1-one]: the EC50 in assay [1] is 1 to 10 µM. Also, the IC50 in assay [2] is less than 0.25 µM.

Consider `CCCN(OC)C(=O)CC[C@@H](C)[C@H]1CC[C@H]2[C@@H]3CC=C4C[C@@H](O)CC[C@]4(C)[C@H]3CC[C@]12C` [Example 13, (R)-4-((3S,8S,9S,10R,13R,14S,17R)-3-hydroxy-10,13-dimethyl-2,3,4,7,8,9,10,11,12,13,14,15,16,17-tetradecahydro-1H-cyclopenta[a]phenanthren-17-yl)-N-methoxy-N-propylpentanamide], for which, in assay [1], the EC50 was 0.25 to 1 µM. The same compound returned an IC50 in assay [2] of less than 0.25 µM.

In the case of `CC(C)ON(C)C(=O)CC[C@@H](C)[C@H]1CC[C@H]2[C@@H]3CC=C4C[C@@H](O)CC[C@]4(C)[C@H]3CC[C@]12C` [Example 14, (R)-4-((3S,8S,9S,10R,13R,14S,17R)-3-hydroxy-10,13-dimethyl-2,3,4,7,8,9,10,11,12,13,14,15,16,17-tetradecahydro-1H-cyclopenta[a]phenanthren-17-yl)-N-isopropoxy-N-methylpentanamide], the EC50 in assay [1] fell in the range of 0.25 to 1 µM. Also, the IC50 in assay [2] is 0.25 to 1 µM.

On to `C[C@H](CCC(=O)N(C)OCCN)[C@H]1CC[C@H]2[C@@H]3CC=C4C[C@@H](O)CC[C@]4(C)[C@H]3CC[C@]12C` [Example 28, (R)—N-(2-aminoethoxy)-4-((3S,8S,9S,10R,13R,14S,17R)-3-hydroxy-10,13-dimethyl-2,3,4,7,8,9,10,11,12,13,14,15,16,17-tetradecahydro-1H-cyclopenta[a]phenanthren-17-yl)-N-methylpentanamide hydrochloride], for which the EC50 in assay [1] was greater than 10 µM. Further, in assay [2], the IC50 lay in the range of 0.25 to 1 µM.

Consider `C[C@H](CCC(=O)N(C)OCCC(F)(F)F)[C@H]1CC[C@H]2[C@@H]3CC=C4C[C@@H](O)CC[C@]4(C)[C@H]3CC[C@]12C` [Example 29, (R)-4-((3S,8S,9S,10R,13R,14S,17R)-3-hydroxy-10,13-dimethyl-2,3,4,7,8,9,10,11,12,13,14,15,16,17-tetradecahydro-1H-cyclopenta[a]phenanthren-17-yl)-N-methyl-N-(3,3,3-trifluoropropoxy)pentanamide], for which the EC50 in assay [1] is greater than 10 µM. Besides, the IC50 in assay [2] is less than 0.25 µM.

Consider `C=CCN1C[C@H]2CON(C(=O)CC[C@@H](C)[C@H]3CC[C@H]4[C@@H]5CC=C6C[C@@H](O)CC[C@]6(C)[C@H]5CC[C@]34C)[C@H]2C1` [Example 44, (R)-1-((3aR,6aR)-5-allylhexahydro-1H-pyrrolo[3,4-c]isoxazol-1-yl)-4-((3S,8S,9S,10R,13R,14S,17R)-3-hydroxy-10,13-dimethyl-2,3,4,7,8,9,10,11,12,13,14,15,16,17-tetradecahydro-1H-cyclopenta[a]phenanthren-17-yl)pentan-1-one], for which the EC50 in assay [1] was greater than 10 µM. In assay [2], this compound gave an IC50 of 0.25 to 1 µM.

`C=CCN1C[C@@H]2CON(C(=O)CC[C@@H](C)[C@H]3CC[C@H]4[C@@H]5CC=C6C[C@@H](O)CC[C@]6(C)[C@H]5CC[C@]34C)[C@@H]2C1` [Example 46, (R)-1-((3aS,6aS)-5-allylhexahydro-1H-pyrrolo[3,4-c]isoxazol-1-yl)-4-((3S,8S,9S,10R,13R,14S,17R)-3-hydroxy-10,13-dimethyl-2,3,4,7,8,9,10,11,12,13,14,15,16,17-tetradecahydro-1H-cyclopenta[a]phenanthren-17-yl)pentan-1-one]: the EC50 in assay [1] is greater than 10 µM. In assay [2], this compound displayed an IC50 of 0.25 to 1 µM.

Take `C[C@H](CCC(=O)N1OC(C)(C)[C@H]2COC[C@H]21)[C@H]1CC[C@H]2[C@@H]3CC=C4C[C@@H](O)CC[C@]4(C)[C@H]3CC[C@]12C` [Example 49, (R)-1-((3aR,6aS)-3,3-dimethyltetrahydro-1H,3H-furo[3,4-c]isoxazol-1-yl)-4-((3S,8S,9S,10R,13R,14S,17R)-3-hydroxy-10,13-dimethyl-2,3,4,7,8,9,10,11,12,13,14,15,16,17-tetradecahydro-1H-cyclopenta[a]phenanthren-17-yl)pentan-1-one]: the EC50 in assay [1] was in the range of 0.25 to 1 µM. This compound also gave an IC50 in assay [2] of 0.25 to 1 µM.

On to `CON(CCO)C(=O)CC[C@@H](C)[C@H]1CC[C@H]2[C@@H]3CC=C4C[C@@H](O)CC[C@]4(C)[C@H]3CC[C@]12C` [Example 62, (R)-4-((3S,8S,9S,10R,13R,14S,17R)-3-hydroxy-10,13-dimethyl-2,3,4,7,8,9,10,11,12,13,14,15,16,17-tetradecahydro-1H-cyclopenta[a]phenanthren-17-yl)-N-(2-hydroxyethyl)-N-methoxypentanamide], for which the EC50 in assay [1] was 0.25 to 1 µM. This compound displayed an IC50 in assay [2] of 0.25 to 1 µM.

On to `CON(CC(=O)O)C(=O)CC[C@@H](C)[C@H]1CC[C@H]2[C@@H]3CC=C4C[C@@H](O)CC[C@]4(C)[C@H]3CC[C@]12C` [Example 63, N—((R)-4-((3S,8S,9S,10R,13R,14S,17R)-3-hydroxy-10,13-dimethyl-2,3,4,7,8,9,10,11,12,13,14,15,16,17-tetradecahydro-1H-cyclopenta[a]phenanthren-17-yl)pentanoyl)-N-methoxyglycine], for which, in assay [1], the EC50 fell in the range of 0.25 to 1 µM. Also, the IC50 in assay [2] was greater than 10 µM.

In the case of `CON(CCN)C(=O)CC[C@@H](C)[C@H]1CC[C@H]2[C@@H]3CC=C4C[C@@H](O)CC[C@]4(C)[C@H]3CC[C@]12C` [Example 64, (R)—N-(2-aminoethyl)-4-((3S,8S,9S,10R,13R,14S,17R)-3-hydroxy-10,13-dimethyl-2,3,4,7,8,9,10,11,12,13,14,15,16,17-tetradecahydro-1H-cyclopenta[a]phenanthren-17-yl)-N-methoxypentanamide], in assay [1], the EC50 was less than 0.25 µM. The IC50 in assay [2] fell in the range of 0.25 to 1 µM.

Take `CON(C(=O)CC[C@@H](C)[C@H]1CC[C@H]2[C@@H]3CC=C4C[C@@H](O)CC[C@]4(C)[C@H]3CC[C@]12C)C(C)CO` (stereo partly drawn) [Example 66, (4R)-4-((3S,8S,9S,10R,13R,14S,17R)-3-hydroxy-10,13-dimethyl-2,3,4,7,8,9,10,11,12,13,14,15,16,17-tetradecahydro-1H-cyclopenta[a]phenanthren-17-yl)-N-(1-hydroxypropan-2-yl)-N-methoxypentanamide]: the EC50 in assay [1] was 0.25 to 1 µM. The IC50 in assay [2] was in the range of 0.25 to 1 µM.

For `CON(C[C@H](C)O)C(=O)CC[C@@H](C)[C@H]1CC[C@H]2[C@@H]3CC=C4C[C@@H](O)CC[C@]4(C)[C@H]3CC[C@]12C` [Example 69, (R)-4-((3S,8S,9S,10R,13R,14S,17R)-3-hydroxy-10,13-dimethyl-2,3,4,7,8,9,10,11,12,13,14,15,16,17-tetradecahydro-1H-cyclopenta[a]phenanthren-17-yl)-N—((S)-2-hydroxypropyl)-N-methoxypentanamide], the EC50 in assay [1] is 0.25 to 1 µM. In assay [2], this compound had an IC50 of less than 0.25 µM.

Take `CON(C[C@@H](C)O)C(=O)CC[C@@H](C)[C@H]1CC[C@H]2[C@@H]3CC=C4C[C@@H](O)CC[C@]4(C)[C@H]3CC[C@]12C` [Example 70, (R)-4-((3S,8S,9S,10R,13R,14S,17R)-3-hydroxy-10,13-dimethyl-2,3,4,7,8,9,10,11,12,13,14,15,16,17-tetradecahydro-1H-cyclopenta[a]phenanthren-17-yl)-N—((R)-2-hydroxypropyl)-N-methoxypentanamide]: the EC50 in assay [1] fell in the range of 0.25 to 1 µM. This compound also gave an IC50 in assay [2] of 0.25 to 1 µM.

Turning to `CON(C(=O)CC[C@@H](C)[C@H]1CC[C@H]2[C@@H]3CC=C4C[C@@H](O)CC[C@]4(C)[C@H]3CC[C@]12C)[C@H](C)CO` [Example 71, (R)-4-((3S,8S,9S,10R,13R,14S,17R)-3-hydroxy-10,13-dimethyl-2,3,4,7,8,9,10,11,12,13,14,15,16,17-tetradecahydro-1H-cyclopenta[a]phenanthren-17-yl)-N—((R)-1-hydroxypropan-2-yl)-N-methoxypentanamide], the EC50 in assay [1] is 0.25 to 1 µM. Besides, in assay [2], the IC50 lay in the range of 0.25 to 1 µM.

Turning to `CON(C(=O)CC[C@@H](C)[C@H]1CC[C@H]2[C@@H]3CC=C4C[C@@H](O)CC[C@]4(C)[C@H]3CC[C@]12C)[C@@H](C)CO` [Example 72, (R)-4-((3S,8S,9S,10R,13R,14S,17R)-3-hydroxy-10,13-dimethyl-2,3,4,7,8,9,10,11,12,13,14,15,16,17-tetradecahydro-1H-cyclopenta[a]phenanthren-17-yl)-N—((S)-1-hydroxypropan-2-yl)-N-methoxypentanamide], in assay [1], the EC50 lay within 0.25 to 1 µM. The IC50 in assay [2] is 0.25 to 1 µM.

In the case of `C[C@H](CCC(=O)N1CCC[C@@H](c2ccccc2)C1)[C@H]1CC[C@H]2[C@@H]3CC=C4C[C@@H](O)CC[C@]4(C)[C@H]3CC[C@]12C` [Example 76, (R)-4-((3S,8S,9S,10R,13R,14S,17R)-3-hydroxy-10,13-dimethyl-2,3,4,7,8,9,10,11,12,13,14,15,16,17-tetradecahydro-1H-cyclopenta[a]phenanthren-17-yl)-1-((S)-3-phenylpiperidin-1-yl)pentan-1-one], the EC50 in assay [1] lay within 1 to 10 µM. Further, the concentration for half-maximal inhibition (IC50) in assay [2] is less than 0.25 µM.

For the compound `C[C@H](CCC(=O)N1CCC[C@H](c2ccccc2)C1)[C@H]1CC[C@H]2[C@@H]3CC=C4C[C@@H](O)CC[C@]4(C)[C@H]3CC[C@]12C` [Example 77, (R)-4-((3S,8S,9S,10R,13R,14S,17R)-3-hydroxy-10,13-dimethyl-2,3,4,7,8,9,10,11,12,13,14,15,16,17-tetradecahydro-1H-cyclopenta[a]phenanthren-17-yl)-1-((R)-3-phenylpiperidin-1-yl) pentan-1-one], the EC50 in assay [1] lay within 1 to 10 µM. The IC50 in assay [2] was less than 0.25 µM.

A word on the IC50: it is the midpoint of a concentration-inhibition curve. A higher IC50 goes with weaker potency in that assay.
